Reference: article PMC9510668 (Frontiers in Pharmacology, 2022)
Where two headings read alike, the source gives them in different places.

Experiments:
[1] = cited from earlier work
[2] = Physicochemical parameters (literature / model input); settings: mean value of literature values, used in the model
[3] = cited from earlier work; remark: listed apart in the source
[4] = ref Fink, 2020; cited from earlier work
[5] = test system: CYP3D6; settings: ref Food and Drug Administration, 2009; Yamada et al., 2020; cited from earlier work
[6] = ref Verheijen et al., 2017, cited from earlier work
[7] = test system: CYP3A4; settings: ref Food and Drug Administration, 2009; Yamada et al., 2020; cited from earlier work
[8] = cited from earlier work; remark: listed apart in the source
[9] = test system: OATP1B1; settings: ref Xu et al., 2010; cited from earlier work
[10] = test system: P-gp; parameters: method as in Minocha et al., 2012; Boudou-Rouquette et al., 2016; settings: in vitro; ref Minocha et al., 2012; Boudou-Rouquette et al., 2016; cited from earlier work
[11] = test system: MATE1; parameters: method as in Sauzay et al., 2016; settings: ref Sauzay et al., 2016; cited from earlier work
[12] = test system: OCT1; parameters: method as in Ellawatty et al., 2018; settings: ref Ellawatty et al., 2018; cited from earlier work
[13] = test system: MATE2-K; parameters: method as in Sauzay et al., 2016; settings: ref Sauzay et al., 2016; cited from earlier work
[14] = ref Food and Drug Administration, 2009
[15] = 50 mg OD for 21 consecutive days, Day 1, ref Hurwitz et al., 2009
[16] = 50 mg OD for 21 consecutive days, Day 22, ref Hurwitz et al., 2009
[17] = 100 mg OD for 21 consecutive days, Day 1, ref Hurwitz et al., 2009
[18] = 100 mg OD for 21 consecutive days, Day 22, ref Hurwitz et al., 2009
[19] = 200 mg OD for 21 consecutive days, Day 1, ref Hurwitz et al., 2009
[20] = 200 mg OD for 21 consecutive days, Day 22, ref Hurwitz et al., 2009
[21] = 300 mg twice daily for 21 consecutive days, Day 1, ref Hurwitz et al., 2009
[22] = 300 mg twice daily for 21 consecutive days, Day 22, ref Hurwitz et al., 2009
[23] = 400 mg OD for 21 consecutive days, Day 1, ref Hurwitz et al., 2009
[24] = 400 mg OD for 21 consecutive days, Day 22, ref Hurwitz et al., 2009
[25] = 400 mg oral suspension, ref Heath et al., 2012
[26] = 400 mg tablet, arithmetic mean (range), ref Deng et al., 2013
[27] = 400 mg twice daily for 21 consecutive days, Day 1, ref Hurwitz et al., 2009
[28] = 400 mg twice daily for 21 consecutive days, Day 22, ref Hurwitz et al., 2009
[29] = 400 mg whole tablet, ref Heath et al., 2012
[30] = 600 mg OD for 21 consecutive days, Day 1, ref Hurwitz et al., 2009
[31] = 600 mg OD for 21 consecutive days, Day 22, ref Hurwitz et al., 2009
[32] = 800 mg OD for 21 consecutive days, Day 1, ref Hurwitz et al., 2009
[33] = 800 mg OD for 21 consecutive days, Day 22, ref Hurwitz et al., 2009
[34] = 1000 mg OD for 21 consecutive days, Day 1, ref Hurwitz et al., 2009
[35] = 1000 mg OD for 21 consecutive days, Day 22, ref Hurwitz et al., 2009
[36] = 1400 mg OD for 21 consecutive days, Day 1, ref Hurwitz et al., 2009
[37] = 1400 mg OD for 21 consecutive days, Day 22, ref Hurwitz et al., 2009
[38] = 2000 mg OD for 21 consecutive days, Day 1, ref Hurwitz et al., 2009
[39] = 2000 mg OD for 21 consecutive days, Day 22, ref Hurwitz et al., 2009

- LogP [2]: 3.49
Structure (SMILES): Cc1ccc(Nc2nccc(N(C)c3ccc4c(C)n(C)nc4c3)n2)cc1S(N)(=O)=O [PAZ, pazopanib]
- Mean oral bioavailability ([1]; oral 800 mg dose in humans, ref Deng et al., 2013): approximately 21.4%
- Elimination via feces, administered radioactivity dose ([1]; ref Deng et al., 2013): approximately 82.2%
- Elimination via feces, unchanged drug ([1]; ref Deng et al., 2013): 67%
- Renal elimination, of the administered dose ([1]; ref Deng et al., 2013): approximately 2.6%
- Higher bioavailability of 400 mg dose than 800 mg dose [1, 14]: 40%
- Increase in AUC of PAZ ([3]; co-administration with ketoconazole, ref Van Leeuwen et al., 2014): approximately 66%
- Decrease in AUC of PAZ ([3]; combined with carbamazepine, ref Van Leeuwen et al., 2014): 30%
- Reduction of oral bioavailability ([3]; concomitant drugs that increase gastric pH, ref Budha et al., 2012): approximately 39%
- Increase in AUC of PAZ ([3]; with lapatinib, ref Van Leeuwen et al., 2014): 59%
- Permeability [4]: highly permeable
- Inhibitor of CYP3D6 [5]: weak inhibitor
- fup, fraction of free drug in plasma [6]: 0.011% ([Verheijen et al., 2017])
- fup, fraction of free drug in plasma ([6]; value used in the model): 0.00011
- Inhibitor of CYP3A4 [7]: weak inhibitor
- AUC0-24, Observation [8, 15]: 51.8 µg·h/mL
- Cmax, Observation [8, 15]: 3.3 µg/mL
- Ctrough, Observation [8, 15]: 1500 ng/mL
- Tmax, Observation [8, 15]: 3.0 h
- AUC504-528, Observation [8, 16]: 157.7 µg·h/mL
- Cmax, Observation [8, 16]: 8.4 µg/mL
- Ctrough, Observation [8, 16]: 5100 ng/mL
- Tmax, Observation [8, 16]: 3.0 h
- AUC0-24, Observation [8, 17]: 96.9 µg·h/mL
- Cmax, Observation [8, 17]: 6.5 µg/mL
- Ctrough, Observation [8, 17]: 2800 ng/mL
- Tmax, Observation [8, 17]: 4.0 h
- AUC504-528, Observation [8, 18]: 160.7 µg·h/mL
- Cmax, Observation [8, 18]: 11.0 µg/mL
- Ctrough, Observation [8, 18]: 4900 ng/mL
- Tmax, Observation [8, 18]: 8.0 h
- AUC0-24, Observation [8, 19]: 104.5 µg·h/mL
- Cmax, Observation [8, 19]: 7.5 µg/mL
- Ctrough, Observation [8, 19]: 2900 ng/mL
- Tmax, Observation [8, 19]: 3.0 h
- AUC504-528, Observation [8, 20]: 384.8 µg·h/mL
- Cmax, Observation [8, 20]: 23.7 µg/mL
- Ctrough, Observation [8, 20]: 12400 ng/mL
- Tmax, Observation [8, 20]: 2.0 h
- AUC0-24, Observation [8, 21]: 120.1 µg·h/mL
- Cmax, Observation [8, 21]: 8.4 µg/mL
- Ctrough, Observation [8, 21]: 4100 ng/mL
- Tmax, Observation [8, 21]: 4.0 h
- Cmax, Observation [8, 22]: 36.7 µg/mL
- Ctrough, Observation [8, 22]: 29500 ng/mL
- Tmax, Observation [8, 22]: 4.0 h
- AUC0-24, Observation [8, 23]: 142.8 µg·h/mL
- Cmax, Observation [8, 23]: 10.3 µg/mL
- Ctrough, Observation [8, 23]: 3900 ng/mL
- Tmax, Observation [8, 23]: 4.0 h
- AUC504-528, Observation [8, 24]: 447.1 µg·h/mL
- Cmax, Observation [8, 24]: 21.8 µg/mL
- Ctrough, Observation [8, 24]: 10400 ng/mL
- Tmax, Observation [8, 24]: 3.0 h
- AUC0-72, Observation [8, 25]: 471.1 (NC) μg h mL^−1
- C24, Observation [8, 25]: 7.8 (NC) μg mL^−1
- Cmax, Observation [8, 25]: 12.7 (NC) μg mL^−1
- Tmax, Observation [8, 25]: 2.7 (NC) h
- AUC0-72, Observation [8, 26]: 335.2 (259–582) μg h mL^−1
- Cmax, Observation [8, 26]: 10.8 (7.3–12.5) μg mL^−1
- Tmax, Observation [8, 26]: 8.0 (4.0–10.0) h
- C24, Observation ([8]; 400 mg tablet, ref Deng et al., 2013): 5.8 (NC) μg mL^−1
- AUC0-24, Observation [8, 27]: 365.4 µg·h/mL
- Cmax, Observation [8, 27]: 6.5 µg/mL
- Ctrough, Observation [8, 27]: 3300 ng/mL
- Tmax, Observation [8, 27]: 3.0 h
- Cmax, Observation [8, 28]: 36.1 µg/mL
- Ctrough, Observation [8, 28]: 28100 ng/mL
- Tmax, Observation [8, 28]: 3.1 h
- AUC0-72, Observation [8, 29]: 410.3 (NC) μg h mL^−1
- C24, Observation [8, 29]: 7.6 (NC) μg mL^−1
- Cmax, Observation [8, 29]: 12.4 (NC) μg mL^−1
- Tmax, Observation [8, 29]: 3.8 h
- AUC0-24, Observation [8, 30]: 157.6 µg·h/mL
- Cmax, Observation [8, 30]: 11.2 µg/mL
- Ctrough, Observation [8, 30]: 4700 ng/mL
- Tmax, Observation [8, 30]: 3.0 h
- AUC504-528, Observation [8, 31]: 333.7 µg·h/mL
- Cmax, Observation [8, 31]: 18.2 µg/mL
- Ctrough, Observation [8, 31]: 11000 ng/mL
- Tmax, Observation [8, 31]: 6.0 h
- AUC0-24, Observation [8, 32]: 275.1 µg·h/mL
- Cmax, Observation [8, 32]: 19.4 µg/mL
- Ctrough, Observation [8, 32]: 9400 ng/mL
- Tmax, Observation [8, 32]: 3.5 h
- AUC504-528, Observation [8, 33]: 743.3 µg·h/mL
- Cmax, Observation [8, 33]: 45.1 µg/mL
- Ctrough, Observation [8, 33]: 24000 ng/mL
- Tmax, Observation [8, 33]: 2.0 h
- AUC0-24, Observation [8, 34]: 400.0 µg·h/mL
- Cmax, Observation [8, 34]: 36.1 µg/mL
- Ctrough, Observation [8, 34]: 12200 ng/mL
- Tmax, Observation [8, 34]: 2.0 h
- AUC504-528, Observation [8, 35]: 796.1 µg·h/mL
- Cmax, Observation [8, 35]: 53.2 µg/mL
- Ctrough, Observation [8, 35]: 28800 ng/mL
- Tmax, Observation [8, 35]: 4.5 h
- AUC0-24, Observation [8, 36]: 291.6 µg·h/mL
- Cmax, Observation [8, 36]: 20.8 µg/mL
- Ctrough, Observation [8, 36]: 8200 ng/mL
- Tmax, Observation [8, 36]: 3.0 h
- AUC504-528, Observation [8, 37]: 536.2 µg·h/mL
- Cmax, Observation [8, 37]: 32.7 µg/mL
- Ctrough, Observation [8, 37]: 16600 ng/mL
- Tmax, Observation [8, 37]: 2.0 h
- AUC0-24, Observation [8, 38]: 681.2 µg·h/mL
- Cmax, Observation [8, 38]: 44.5 µg/mL
- Ctrough, Observation [8, 38]: 12200 ng/mL
- Tmax, Observation [8, 38]: 4.0 h
- AUC504-528, Observation [8, 39]: 860.3 µg·h/mL
- Cmax, Observation [8, 39]: 52.7 µg/mL
- Ctrough, Observation [8, 39]: 28800 ng/mL
- Tmax, Observation [8, 39]: 3.0 h
- Slope of AUC vs dose, clinically determined value [8, 14]: 0.46
- IC50 [9]: 0.79 µM
- Substrate for efflux transporter P-gp [10]: weak substrate
- Ki [11]: 1.7 µM
- Km [12]: 3.47 µM
- OCT1 Vmax [12]: 530 pmol/min/mg protein
- Ki [13]: 3.3 µM
